The source of these data is US5663197A, “2-(1-hydroxyethyl)-5-hydroxynaphtho[2,3-b]furan-4,9-dione and antitumor agents comprising this compound” (priority 1992, dated 1997).

Converted amounts (≈) assume the structure as drawn.

Series [1] has as its system Human lung adenocarcinoma A-549 cells. Kind of series: In vitro antitumor test (trypan blue exclusion viable cell count), A-549. The following applies: A549, 72 h, three days exposure, read-out: LD50 (IC50), 50% growth-inhibitory dose. It is filed as cell-based. As to the method: (§1) An appropriate amount of NFD was dissolved in DMSO to give a 1.0 mg/ml stock solution, which was diluted as necessary before use.
(§2) The following cells in the late logarithmic phase were harvested after treatment with trypsin (containing 0.25% trypsin and 0.02% EDTA; 37° C., 3 min) and used in the test: human lung adenocarcinoma cell lines A-549, VMRC-LCD and SK-LU-1, human lung squamous cell carcinoma Calu-1 cells, human colon adenocarcinoma WiDr cells, human prostate cancer LNCaP cells, human vaginal squamous cell carcinoma A-431 cells, human cervical carcinoma HeLa cells, human cholangiocarcinoma HuCC-T1 cells, mouse skin cancer melanoma B16 (M4) cells, human pancreatic carcinoma ASPC-1 cells, human neuroblastoma IMR-132 cells, human lung small cell carcinoma SCCH-194 cells, human uninary bladder carcinoma T24 cells, human renal cell carcinoma […] cells, human gastric cancer NUGC-2 cells, human thyroid carcinoma 8305C cells, human hepatoma HUH-7 cells, human ovarian carcinoma TYK-nu cells and human chorio carcinoma BeWo cells. […] These cells were plated onto a 96-well microplate at a density of 5-10×10^3 cells/cm^2 using DMEM or RPMI-1640 medium containing 10% fetal bovine serum and cultured for 24 hours in a conventional manner, after which a pre-determined amount of NFD dissolved in DMSO was added to each well. […]

Series [2] concerns Human hepatoma HuH-7 cells. Kind of series: In vitro antitumor test (trypan blue exclusion viable cell count), HuH-7. It is filed as cell-based. As to the method: as §1, §2
In series [3] the test system is Normal human peripheral blood lymphocytes. The experiment in a line: In vitro growth test on normal cells, peripheral blood lymphocytes. It is filed as cell-based. The protocol:
as §1, §2

Another series deals with lung adenomas in mice. The experiment in a line: Inhibition of two-step carcinogenesis in mouse lungs. It is filed as in vivo, mouse (female ICR). As to the method: Female ICR mice were used as test animals. Fifteen mice were housed in a cage and provided with the pellet diet and drinking water ad libitum. After one week of preliminary rearing, the six-week-old mice were given in the back a subcutaneous injection of 10 mg/kg body weight of 4-nitroquinoline-N-oxide (4NQO) dissolved in a mixture of olive oil and cholesterol (20:1). From five weeks after initiation, the mice were allowed to orally take 8% glycerol ad libitum as a carcinogenic promoter. The mice which received 4 NQO and 8% glycerol for 25 weeks served as a positive control. On the other hand, the mice in the test group were given ad libitum 8% glycerol containing 0.1 ng/ml of NFD for 25 weeks. Thirty weeks after the onset of the experiment, the mice were killed by cervical dislocation, and the lungs were removed after fixation with formalin under autopsy. Under a stereomicroscope, the adenomas formed in the lung were observed, and the number of adenomas was determined. The numbers were compared between the positive control and NFD-administered groups.

The test system of series [4] is Human neuroblastoma IMR-132 cells. Kind of series: In vitro antitumor test (trypan blue exclusion viable cell count), IMR-132. Type of series: cell-based. The protocol: as §1, §2
A further series relates to Normal human renal cells. The experiment in a line: In vitro growth test on normal cells, renal cells. Type of series: cell-based. As to the method: as §1
as §2, with “cells. Suspension cultures of human breast cancer MRK-nu-1 cells, human malignant B-cell lymphoma cells and human chronic myelogenous leukemia K562 cells were used to harvest the cells to be used in the test.” for “cells.”, “well. Cultivation was continued, and the number of viable cells was counted after 24, 48 and 72 hours.” for “well.”
Growth inhibitory action and lethal activity of NFD on various types of malignant tumor cells and normal human cells listed above were evaluated by counting the number of viable cells in each well of the 96-well microplate. […]

Broadly, the IC50 is the concentration that inhibits the measured activity by half. For the compound `CC(O)c1cc2c(o1)C(=O)c1cccc(O)c1C2=O` (stereo not drawn) [NFD, 2-(1-hydroxyethyl)-5-hydroxynaphtho[2,3-b]furan-4,9-dione], the IC50 in series [1] worked out at 0.0095 µg/mL (≈ 0.0368 µM); in series [2] (72 h, HuH-7, three days exposure, read-out: LD50 (IC50), 50% growth-inhibitory dose), 0.0055 µg/mL (≈ 0.0213 µM); in series [3] (Homo sapiens, Lymphocyte, 72 h, normal peripheral blood lymphocytes, three days exposure, read-out: LD50 (IC50), 50% growth-inhibitory dose), 0.084 µg/mL (≈ 0.325 µM); in series [4] (72 h, IMR-132, three days exposure, read-out: LD50 (IC50), 50% growth-inhibitory dose), 0.01 µg/mL (≈ 0.0387 µM); in the series on Normal human renal cells (Homo sapiens, 72 h, normal renal cells, three days exposure, read-out: LD50 (IC50), 50% growth-inhibitory dose) it was 0.065 µg/mL (≈ 0.252 µM). Besides, the IC (almost complete) in series [2] (Huh-7, FIG. 21, read-out: concentration inhibiting growth almost completely) was 0.02 µg/mL; in series [4] (FIG. 14, read-out: concentration inhibiting growth almost completely), 0.0447 µg/mL. Further, the “adverse effects on growth of normal cells” value in series [3] (FIG. 26, at concentrations which cause necrosis in tumor cells) is reported as “no adverse effects”; in the series with Normal human renal cells (FIG. 27, at concentrations which cause necrosis in tumor cells), “no adverse effects”. For the same compound, in the series with lung adenomas in mice (0.1 ng/ml NFD in 8% glycerol, versus positive control), the “inhibition of adenoma formation in the lung” value is recorded as “significant inhibition”. Besides, the “expression percentage of lung adenomas, lower than that in the positive control group” value in the series with lung adenomas in mice (30th week after onset, versus 4NQO + 8% glycerol group) was 1/3. The “concentration inhibiting growth of normal renal cells” value in the series with Normal human renal cells (FIG. 27, only at higher concentration) was 100 ng/mL.
